From patent US20130071854A1, “METHODS FOR THE IDENTIFICATION AND CHARACTERIZATION OF HDAC INTERACTING COMPOUNDS” (priority 2009, published 2013)
Read-outs that look alike come from different tables or passages of the source.

Legend:
MBD3 = assay: Competition binding assay in cell lysate, affinity matrix, MS (Mi-2/NuRD interactor); conditions: K-562 cell lysate
PTER = molecular target: T1, PTER (Homo sapiens, UniProt Q96BW5); assay: Competition binding assay in cell lysate, affinity matrix, MS
T1 construct: endogenous in cells
T1 sequence (Q96BW5 1-349): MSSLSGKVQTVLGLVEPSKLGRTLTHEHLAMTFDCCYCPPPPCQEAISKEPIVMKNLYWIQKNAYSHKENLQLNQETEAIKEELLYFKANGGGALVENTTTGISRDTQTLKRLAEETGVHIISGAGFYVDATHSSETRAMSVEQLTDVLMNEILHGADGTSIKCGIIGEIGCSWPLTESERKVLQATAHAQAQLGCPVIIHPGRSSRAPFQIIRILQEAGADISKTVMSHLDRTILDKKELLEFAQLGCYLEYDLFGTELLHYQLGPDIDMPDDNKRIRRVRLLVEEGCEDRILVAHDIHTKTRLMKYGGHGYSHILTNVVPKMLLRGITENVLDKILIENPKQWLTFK

DNTTIP1 = assay: as above; conditions: K-562 cell lysate
acetylated tubulin = assay: Cell-based tubulin acetylation assay (immunofluorescence, western blotting); parameters: species or system human; conditions: for tubulin acetylation (in words): K562 and HeLa cells, immunofluorescence and western blotting
ISOC1 = molecular target: T2, ISOC1 (Homo sapiens, UniProt Q96CN7); assay: Competition binding assay in cell lysate, affinity matrix, MS
T2 construct: endogenous in cells
T2 sequence (Q96CN7 1-298): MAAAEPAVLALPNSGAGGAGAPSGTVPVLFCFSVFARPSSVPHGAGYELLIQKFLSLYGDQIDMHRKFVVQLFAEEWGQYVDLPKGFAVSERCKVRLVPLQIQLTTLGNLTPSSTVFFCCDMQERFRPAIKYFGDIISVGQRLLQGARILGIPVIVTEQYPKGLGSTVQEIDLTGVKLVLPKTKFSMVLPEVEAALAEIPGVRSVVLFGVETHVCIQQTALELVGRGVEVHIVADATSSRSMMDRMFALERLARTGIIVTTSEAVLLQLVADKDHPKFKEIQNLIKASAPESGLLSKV

[1] = system: acetylated histones H3 and H4; assay: Cell-based histone acetylation assay (immunofluorescence, western blotting); parameters: species or system human; conditions: K562 and HeLa cells
CoREST complex = assay: Chemoproteomic binding profiling, K562 cell extract, SAHA/ITF2357 probe matrix (Kd app); parameters: species or system human
MIER3 = assay: Chemoproteomic binding profiling, K562 cell extract, SAHA/ITF2357 probe matrix (Kd app), ELSA (ELM-SANT) domain protein; parameters: species or system human; conditions: ELSA (ELM-SANT) domain proteins
MIER1 = assay: as above; parameters: species or system human; conditions: ELSA (ELM-SANT) domain proteins
NuRD complex = assay: Chemoproteomic binding profiling, K562 cell extract, SAHA/ITF2357 probe matrix (Kd app); parameters: species or system human
EHMT2 = assay: Chemoproteomic binding profiling, K562 cell extract, SAHA/ITF2357 probe matrix (Kd app), ELSA (ELM-SANT) domain proteins group; parameters: species or system human; conditions: protein EHMT2
HDAC6 = molecular target: T3, HDAC6 (Homo sapiens, UniProt Q9UBN7); assay: Chemoproteomic binding profiling, K562 cell extract, SAHA/ITF2357 probe matrix (Kd app); parameters: used to probe endogenous HDACs in K562 whole cell extracts; endogenous in cells; conditions: for binding profile for HDAC6 (in words): K562 cell extract
T3 sequence (Q9UBN7 1-1215): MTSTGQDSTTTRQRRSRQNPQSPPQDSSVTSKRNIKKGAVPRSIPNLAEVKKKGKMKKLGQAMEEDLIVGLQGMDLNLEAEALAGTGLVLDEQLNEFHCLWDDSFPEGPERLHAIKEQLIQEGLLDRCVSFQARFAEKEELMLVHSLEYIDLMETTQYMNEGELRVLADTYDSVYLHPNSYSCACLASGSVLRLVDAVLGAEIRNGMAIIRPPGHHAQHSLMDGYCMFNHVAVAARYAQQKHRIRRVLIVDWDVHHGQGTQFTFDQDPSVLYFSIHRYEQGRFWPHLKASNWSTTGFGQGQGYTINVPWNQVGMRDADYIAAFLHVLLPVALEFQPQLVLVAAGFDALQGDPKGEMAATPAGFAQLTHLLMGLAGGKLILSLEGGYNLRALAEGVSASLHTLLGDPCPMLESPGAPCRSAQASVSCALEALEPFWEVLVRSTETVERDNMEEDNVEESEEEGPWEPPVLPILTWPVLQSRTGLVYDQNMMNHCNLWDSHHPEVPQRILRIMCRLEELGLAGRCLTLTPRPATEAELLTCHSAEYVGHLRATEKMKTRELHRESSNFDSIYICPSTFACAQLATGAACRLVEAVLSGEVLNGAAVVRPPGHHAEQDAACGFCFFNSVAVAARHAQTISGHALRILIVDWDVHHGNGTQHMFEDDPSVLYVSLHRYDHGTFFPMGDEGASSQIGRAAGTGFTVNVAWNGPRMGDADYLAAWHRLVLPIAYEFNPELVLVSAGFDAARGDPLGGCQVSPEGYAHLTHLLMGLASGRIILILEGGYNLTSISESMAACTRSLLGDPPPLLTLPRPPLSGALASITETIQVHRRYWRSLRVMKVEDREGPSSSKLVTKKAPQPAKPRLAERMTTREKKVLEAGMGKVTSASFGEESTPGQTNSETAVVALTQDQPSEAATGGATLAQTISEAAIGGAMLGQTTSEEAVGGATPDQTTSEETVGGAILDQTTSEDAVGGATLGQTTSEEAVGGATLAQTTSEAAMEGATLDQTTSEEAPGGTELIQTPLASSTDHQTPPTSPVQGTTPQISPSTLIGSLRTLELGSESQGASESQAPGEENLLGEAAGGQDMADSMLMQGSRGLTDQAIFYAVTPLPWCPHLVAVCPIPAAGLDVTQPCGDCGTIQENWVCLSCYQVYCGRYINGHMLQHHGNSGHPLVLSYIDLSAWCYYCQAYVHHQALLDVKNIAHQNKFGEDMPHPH

[2] = protein GSE1, CoREST complex, read-out: Kd^app GSE1
[3] = protein HMG20A, CoREST complex, read-out: Kd^app HMG20A
[4] = protein HMG20B, CoREST complex, read-out: Kd^app HMG20B
[5] = protein RCOR1, CoREST complex, read-out: Kd^app RCOR1
[6] = protein RCOR2, CoREST complex, read-out: Kd^app RCOR2
[7] = protein RCOR3, CoREST complex, read-out: Kd^app RCOR3
[8] = protein ZMYM2, CoREST complex, read-out: Kd^app ZMYM2
[9] = protein ZMYM3, CoREST complex, read-out: Kd^app ZMYM3
[10] = protein HDAC6, class II HDAC, read-out: Kd^app HDAC6
[11] = protein CHD4, NuRD complex, read-out: Kd^app CHD4
[12] = protein GATAD2A, NuRD complex, read-out: Kd^app GATAD2A
[13] = protein GATAD2B, NuRD complex, read-out: Kd^app GATAD2B
[14] = protein MBD3, NuRD complex, read-out: Kd^app MBD3
[15] = protein MTA1, NuRD complex, read-out: Kd^app MTA1
[16] = protein MTA2, NuRD complex, read-out: Kd^app MTA2
[17] = protein MTA3, NuRD complex, read-out: Kd^app MTA3
[18] = protein MBD2, NuRD complex, read-out: Kd^app MBD2

SMILES	IC50 (MBD3)	tubulin acetylation (in words) (acetylated tubulin)	histone acetylation (in words) [1]	Kd (MIER3)	Kd (MIER1)	Kd (EHMT2)	Kd (CoREST complex; [2])	Kd (CoREST complex; [3])	Kd (CoREST complex; [4])	Kd (CoREST complex; [5])	Kd (CoREST complex; [6])	Kd (CoREST complex; [7])	Kd (CoREST complex; [8])	Kd (CoREST complex; [9])	Kd (NuRD complex; [11])	Kd (NuRD complex; [12])	Kd (NuRD complex; [13])	Kd (NuRD complex; [14])	Kd (NuRD complex; [15])	Kd (NuRD complex; [17])	also measured
O=C(CCCCCCC(=O)Nc1ccccc1)NO [SAHA, suberoylanilide hydroxamic acid]	0.61 µM	increased steady state acetylation of tubulin and histones	increased steady state acetylation of tubulin and histones																		IC50 (PTER): ≥ 10 µM; IC50 (PTER; IC50, PTER, mix of Jurkat and Ramos cell lysates): 10 µM; IC50 (DNTTIP1): 0.48 µM; IC50 (ISOC1; IC50, ISOC1, K-562 cell lysate): 1.1 µM; IC50 (ISOC1; IC50, ISOC1, mix of Jurkat and Ramos cell lysates): 2.19 µM
Nc1ccccc1NC(=O)c1ccc(CNC(=O)OCc2cccnc2)cc1 [MS-275]	300 µM			> 300 µM	> 300 µM	> 300 µM															IC50 (PTER): ≥ 300 µM; IC50 (DNTTIP1): 300 µM; Kd (CoREST complex; read-out: Kd^app GSE1): > 300 µM; Kd (CoREST complex; read-out: Kd^app HMG20A): > 300 µM; Kd (CoREST complex; read-out: Kd^app HMG20B): > 300 µM; Kd (CoREST complex; read-out: Kd^app PHF21A): > 300 µM; Kd (CoREST complex; read-out: Kd^app RCOR1): > 300 µM; Kd (CoREST complex; read-out: Kd^app RCOR2): > 300 µM; Kd (CoREST complex; read-out: Kd^app RCOR3): > 300 µM; Kd (CoREST complex; read-out: Kd^app ZMYM2): > 300 µM; Kd (CoREST complex; read-out: Kd^app ZMYM3): > 300 µM; Kd (NuRD complex; read-out: Kd^app CHD4): > 300 µM; Kd (NuRD complex; read-out: Kd^app GATAD2A): > 300 µM; Kd (NuRD complex; read-out: Kd^app GATAD2B): > 300 µM; Kd (NuRD complex; read-out: Kd^app MBD2): > 300 µM; Kd (NuRD complex; read-out: Kd^app MBD3): > 300 µM; Kd (NuRD complex; read-out: Kd^app MTA1): > 300 µM; Kd (NuRD complex; read-out: Kd^app MTA2): > 300 µM; Kd (NuRD complex; read-out: Kd^app MTA3): > 300 µM; IC50 (ISOC1; read-out: IC50): ≥ 300 µM
CCCCOc1ccc(CC(=O)NO)cc1 [bufexamac]		hyperacetylation of tubulin	did not affect the acetylation of histones	165 µM	367 µM	105 µM	> 59.7 µM	> 59.7 µM	> 59.7 µM	> 59.7 µM	> 59.7 µM	> 59.7 µM	128 µM	172 µM	386 µM	572 µM	> 59.7 µM	409 µM	168 µM	626 µM	EC50 (acetylated tubulin; Homo sapiens, HeLa cells, treated 4 h, western blotting): 2.9 µM; tubulin acetylation (in words) (acetylated tubulin; listed as Bufexamac): strong increase in acetylated tubulin; binding profile for HDAC6 (in words) (HDAC6): selectivity for HDAC6 and HDAC10; Kd (HDAC6; [10]): 10 µM; Kd (NuRD complex; [16]): 555 µM
Nc1ccccc1NC(=O)CCCCCCC(=O)Nc1ccccc1 [BML-210]				47 µM	50 µM	> 85 µM	51 µM	40 µM	50 µM	46 µM	85 µM	55 µM	> 85 µM	> 85 µM	30 µM	> 85 µM	69 µM	59 µM	15 µM	69 µM	binding profile for HDAC6 (in words) (HDAC6): complete loss of potency for class IIb; Kd (HDAC6; [10]): > 85 µM; Kd (NuRD complex; [18]): 83 µM
CCCC(CCC)C(=O)O [valproate, valproic acid]		did not affect tubulin	elicited staining of acetylated histones	344 µM	507 µM	1210 µM	224 µM	322 µM	380 µM	258 µM	311 µM	274 µM	700 µM	922 µM	544 µM	1040 µM	843 µM	930 µM	528 µM	667 µM	Kd (CoREST complex; protein PHF21A, CoREST complex, read-out: Kd^app PHF21A): 438 µM; Kd (HDAC6; read-out: Kd^app HDAC6, protein HDAC6, class II HDAC): > 10 µM; Kd (NuRD complex; [18]): 1300 µM; Kd (NuRD complex; [16]): 997 µM
O=C(/C=C/c1cccc(S(=O)(=O)Nc2ccccc2)c1)NO [belinostat]					0.17 µM																Kd (HDAC6): 0.41 µM
